Patent publication US20110306597A1, “Nicotinamide Derivatives” (priority 2008, published 2011)

Target: human recombinant H-PGDS (Homo sapiens, UniProt O60760)
Test: Fluorescence Intensity h-PGDS TBA Enzyme Assay
Assay type: biochemical
Conditions: 1:175,000 human recombinant H-PGDS, highest inhibitor concentration typically 1 μM
Procedure: Fluorescence Intensity h-PGDSTBA Enzyme Assay
Prostaglandin D Synthase (PGDS) converts the substrate prostaglandin H2 (PGH2) to prostaglandin D2. The depletion of PGH2 was measured via an Fe(II) reduction of the remaining PGH2 to malondialdehyde (MDA) and 12-HHT. The enzyme assay is based on the quantitative formation of a fluorescent complex from the non-fluorescent compounds MDA and 2-thiobarbituric acid (TBA), substantially as described in U.S. patent application publication US-2004/152148 by Lombardt.
The enzyme assay (31 μls) contained 100 mM Tris base pH 8.0, 100 μM MgCl2, 0.1 mg/ml IgG Rabbit serum, 5.0 μM PGH2 (Cayman; ethanol solution, #17020), 2.5 mM L-Glutathione (Sigma; reduced form #G4251), 1:175,000 human recombinant H-PGDS (from 1 mg/ml), 0.5% DMSO and inhibitor (varying concentration). Three μls of diluted inhibitor (dissolved in DMSO) was plated into a 384-well assay plate followed by a 25 μl addition of an enzyme solution containing h-PGDS, Tris, MgCl2, IgG and L-Glutathione. After preincubation of inhibitor and enzyme solution for 10 minutes at room temperature, the reaction was initiated with a 3 μl addition of substrate solution in 10 mM HCl. The reaction was terminated after 42 second by the addition (3 μl) of stop buffer containing FeCl2 and citric acid. After addition of 45.5 μls of TBA plates were heated for one hour in a 70 C oven. Plates were cooled at room temperature overnight and read on a plate reader the next day with excitation @ 530 nm and emission @ 565 nm.
IC50's of inhibitors were calculated with a 4-parameter fit using 11 inhibitor concentrations in duplicate with 3-fold serial dilutions. Controls on each plate included no inhibitor (zero % effect) and an inhibitor 10-fold in excess of its' IC50 (100% effect). The highest inhibitor concentration tested was typically 1 μM.

Chain of human recombinant H-PGDS (O60760 whole entry): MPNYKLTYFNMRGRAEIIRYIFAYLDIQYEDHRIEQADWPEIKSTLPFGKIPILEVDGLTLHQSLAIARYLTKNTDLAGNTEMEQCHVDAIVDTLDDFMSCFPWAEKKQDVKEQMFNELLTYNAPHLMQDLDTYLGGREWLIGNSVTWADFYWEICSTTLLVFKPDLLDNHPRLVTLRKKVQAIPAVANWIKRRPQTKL

Row | Molecule | IC50 [µM]
1 | 6-(3-Fluorophenyl)-N-(3- hydroxypropyl)nicotinamide [Example 435] | 0.0495
2 | 6-(3-Fluorophenyl)-N-[2- hydroxy-2-(1-methyl-1H- imidazol-2- yl)ethyl]nicotinamide [Example 4] | 0.0599
3 | 6-(3-Fluorophenyl)-N-{[1- (2-methoxyethyl)piperidin- 3-yl]methyl}nicotinamide [Example 438] | 0.374
4 | 6-(3-Fluorophenyl)-N-{[4-(4- methoxybenzoyl)-5- oxomorpholin-2- yl]methyl}nicotinamide [Example 72] | 0.051
5 | Cc1ccc2nc(CCNC(=O)c3ccc(-c4cccc(F)c4)nc3)cn2c1 [Example 1, 6-(3-Fluorophenyl)-N-[2-(6-methylimidazo[1,2-a]pyridin-2-yl)ethyl]nicotinamide] | 0.00354
6 | Cc1nc(CCNC(=O)c2ccc(-c3cccc(F)c3)nc2)cs1 [Example 2, 6-(3-Fluorophenyl)-N-[2-(2-methyl-1,3-thiazol-4-yl)ethyl]nicotinamide] | 0.00353
7 | Cc1cccnc1CC(C)NC(=O)c1ccc(-c2cccc(F)c2)nc1 (stereo not drawn) [Example 3, 6-(3-Fluorophenyl)-N-[1-methyl-2-(3-methylpyridin-2-yl)ethyl]nicotinamide] | 0.00289
8 | O=C(NCCCn1nnc2ccccc21)c1ccc(-c2cccc(F)c2)nc1 [Example 5, N-[3-(1H-Benzotriazol-1-yl)propyl]-6-(3-fluorophenyl)nicotinamide] | 0.00486
9 | O=C(NCCc1cn2cccnc2n1)c1ccc(-c2cccc(F)c2)nc1 [Example 6, 6-(3-Fluorophenyl)-N-(2-imidazo[1,2-a]pyrimidin-2-ylethyl)nicotinamide] | 0.013
10 | Cc1cc(=O)[nH]c(NCCNC(=O)c2ccc(-c3cccc(F)c3)nc2)n1 [Example 7, 6-(3-Fluorophenyl)-N-{2-[(4-methyl-6-oxo-1,6-dihydropyrimidin-2-yl)amino]ethyl}nicotinamide] | 0.0388
11 | N#CC(NC(=O)c1ccc(-c2cccc(F)c2)nc1)c1ccccc1 (stereo not drawn) [Example 8, N-[Cyano(phenyl)methyl]-6-(3-fluorophenyl)nicotinamide] | 0.0257
12 | O=C(NC[C@H]1CC[C@H](c2nnc(C3CC3)[nH]2)CC1)c1ccc(-c2cccc(F)c2)nc1 [Example 9, N-{[trans-4-(5-Cyclopropyl-4H-1,2,4-triazol-3-yl)cyclohexyl]methyl}-6-(3-fluorophenyl)nicotinamide] | 0.0836
13 | CN1CCc2nc(N3CCC(CNC(=O)c4ccc(-c5cccc(F)c5)nc4)CC3)ncc2C1 [Example 10, 6-(3-Fluorophenyl)-N-{[1-(6-methyl-5,6,7,8-tetrahydropyrido[4,3-d]pyrimidin-2-yl)piperidin-4-yl]methyl}nicotinamide] | 0.0269
14 | Cc1noc([C@H]2CC[C@H](CNC(=O)c3ccc(-c4cccc(F)c4)nc3)CC2)n1 [Example 11, 6-(3-Fluorophenyl)-N-{[trans-4-(3-methyl-1,2,4-oxadiazol-5-yl)cyclohexyl]methyl} nicotinamide] | 0.0189
15 | CC(C)N1CCC(CNC(=O)c2ccc(-c3cccc(F)c3)nc2)C1 (stereo not drawn) [Example 12, 6-(3-Fluorophenyl)-N-[(1-isopropylpyrrolidin-3-yl)methyl]nicotinamide] | 0.117
16 | O=C(NCc1ccc[nH]c1=O)c1ccc(-c2cccc(F)c2)nc1 [Example 13, 6-(3-Fluorophenyl)-N-[(2-oxo-1,2-dihydropyridin-3-yl)methyl]nicotinamide] | 0.0204
17 | O=C(NCC1CCCN(c2ccccn2)C1)c1ccc(-c2cccc(F)c2)nc1 (stereo not drawn) [Example 14, 6-(3-Fluorophenyl)-N-[(1-pyridin-2-ylpiperidin-3-yl)methyl]nicotinamide] | 0.00918

Row | Molecule | IC50 [µM]
18 | O=C(NC(c1ccccc1)c1nc(CN2CCOCC2)no1)c1ccc(-c2cccc(F)c2)nc1 (stereo not drawn) [Example 15, 6-(3-Fluorophenyl)-N-{[3-(morpholin-4-ylmethyl)-1,2,4-oxadiazol-5-yl](phenyl)methyl}nicotinamide] | 0.0709
19 | COc1ccccc1-c1nnc(CCNC(=O)c2ccc(-c3cccc(F)c3)nc2)o1 [Example 16, 6-(3-Fluorophenyl)-N-{2-[5-(2-methoxyphenyl)-1,3,4-oxadiazol-2-yl]ethyl}nicotinamide] | 0.0041
20 | COCCCn1cnnc1CNC(=O)c1ccc(-c2cccc(F)c2)nc1 [Example 17, 6-(3-Fluorophenyl)-N-{[4-(3-methoxypropyl)-4H-1,2,4-triazol-3-yl]methyl}nicotinamide] | 0.112
21 | O=C(NCCN1CCCC(CO)C1)c1ccc(-c2cccc(F)c2)nc1 (stereo not drawn) [Example 18, 6-(3-Fluorophenyl)-N-{2-[3-(hydroxymethyl)piperidin-1-yl]ethyl}nicotinamide] | 0.0311
22 | COCCN1CCC(CNC(=O)c2ccc(-c3cccc(F)c3)nc2)CC1 [Example 19, 6-(3-Fluorophenyl)-N-{[1-(2-methoxyethyl)piperidin-4-yl]methyl}nicotinamide] | 0.117
23 | COCCN1CC(CNC(=O)c2ccc(-c3cccc(F)c3)nc2)CC1=O (stereo not drawn) [Example 20, 6-(3-Fluorophenyl)-N-{[1-(2-methoxyethyl)-5-oxopyrrolidin-3-yl]methyl}nicotinamide] | 0.0351
24 | COc1cc(CCNC(=O)c2ccc(-c3cccc(F)c3)nc2)cc(OC)c1O [Example 21, 6-(3-Fluorophenyl)-N-[2-(4-hydroxy-3,5-dimethoxyphenyl)ethyl] nicotinamide] | 0.00494
25 | CCCOCCCNC(=O)c1ccc(-c2cccc(F)c2)nc1 [Example 22, 6-(3-Fluorophenyl)-N-(3-propoxypropyl)nicotinamide] | 0.0138
26 | COCCn1cnnc1CNC(=O)c1ccc(-c2cccc(F)c2)nc1 [Example 23, 6-(3-Fluorophenyl)-N-{[4-(2-methoxyethyl)-4H-1,2,4-triazol-3-yl]methyl}nicotinamide] | 0.106
27 | CC(CCCC(C)(C)O)NC(=O)c1ccc(-c2cccc(F)c2)nc1 (stereo not drawn) [Example 24, 6-(3-Fluorophenyl)-N-(5-hydroxy-1,5-dimethylhexyl)nicotinamide] | 0.0202
28 | Cn1ccnc1C(NC(=O)c1ccc(-c2cccc(F)c2)nc1)c1c(F)cccc1F (stereo not drawn) [Example 25, N-[(2,6-Difluorophenyl)(1-methyl-1H-imidazol-2-yl)methyl]-6-(3-fluorophenyl)nicotinamide] | 0.399
29 | O=C(NCC1(O)CCCCC1)c1ccc(-c2cccc(F)c2)nc1 [Example 26, 6-(3-Fluorophenyl)-N-[(1-hydroxycyclohexyl)methyl] nicotinamide] | 0.0418
30 | CCOC(=O)CC[C@H](NC(=O)c1ccc(-c2cccc(F)c2)nc1)C(=O)OCC [Example 27, Diethyl N-{[6-(3-fluorophenyl)pyridin-3-yl]carbonyl}-L-glutamate] | 0.00429
31 | CS(=O)(=O)CCNC(=O)c1ccc(-c2cccc(F)c2)nc1 [Example 28, 6-(3-Fluorophenyl)-N-[2-(methylsulfonyl)ethyl] nicotinamide] | 0.0471
32 | NC(=O)[C@H](Cc1ccccc1)NC(=O)c1ccc(-c2cccc(F)c2)nc1 [Example 29, Nalpha-{[6-(3-fluorophenyl)pyridin-3-yl]carbonyl} phenylalaninamide] | 0.0176
33 | O=C(CC(NC(=O)c1ccc(-c2cccc(F)c2)nc1)C1CC1)NCC1CC1 (stereo not drawn) [Example 30, N-{1-Cyclopropyl-3-[(cyclopropylmethyl)amino]-3-oxopropyl}-6-(3-fluorophenyl)nicotinamide] | 0.041
